Columns and labels:
[1] = tested on: tumor cells; details: cited from earlier work
[2] = tested on: Bcl-2; assay: Western blot of Bcl-2 in Skmel-28 melanoma cells treated with CoQ10 building block components; format: cell-based
Experimental: (§1) Skmel-28 melanoma cells were cultured in DMEM/F12 supplemented with 5% Fetal Bovine Serum (FBS) and 1× final concentration of Antibiotics. The cells were grown to 85% confluency and treated with building block components for 3, 6, 12 and 24 hours. The cells were then pelleted and a Western blot analysis was performed.
(§2) In the Western Blot Analysis, the cells were pelleted in cold PBS, lysed, and the protein levels were quantified using a BCA protein assay. The whole cell lysate was loaded in a 4% loading 12% running Tris-HCl gel. The proteins were then transferred to a nitrocellulose paper then blocked with a 5% milk Tris-buffered solution for 1 hour. The proteins were then exposed to primary antibodies (Bcl-2 and Caspase-3) overnight. The nitrocellulose paper was then exposed to Pico Chemilluminescent for 5 min and the protein expression was recorded. After exposure, actin was quantified using the same method. Using ImageJ the levels of protein expression were quantified. A t-Test was used to analyze for statistical significance.

[3] = tested on: Caspase-3; assay: Western blot of Caspase-3 in Skmel-28 melanoma cells treated with CoQ10 building block components; format: cell-based; details: for Caspase-3 expression / apoptotic effect: all concentrations and time points tested
Experimental: as §1, §2

[4] = tested on: neonatal fibroblast cells; assay: Cell proliferation assay (coulter counter); format: cell-based; details: HB 500 nM, 5 μM, 25 μM alone and with benzoquinone 25, 50, 100 μM; 24 hours
Experimental: A cell proliferation assay was also performed on neonatal fibroblast cells. The concentrations of HB tested were 500 nM, 5 μM, and 25 μM. HB was also tested in combination with benzoquinone at a concentrations of 25 μM, 50 μM, and 100 μM. […] The cells were trypsinized and quantified using a coulter counter.

[5] = tested on: Melanoma cells; assay: Cell proliferation assay (live cell count) of building block combinations; format: cell-based
Experimental: Cell Proliferation Assay of the Combination of 4-Hydroxy-Benzoate with Benzoquinone: This set of experiments used a cell proliferation assay to assess the effect of combining different building block molecules on cell proliferation.
The first study examined the effect of combining 4-Hydroxy-Benzoate with Benzoquinone. Cells were incubated for 48 hours, after which a cell count was performed for the live cells. Each test group was compared to the control, and each combination groups were compared to Benzoquinone control. The compounds were statistically analyzed for the addition of Benzoquinone.
Additional studies were performed testing additional molar ratios. For the first test 4-Hydroxybenzoic were tested at concentrations of 500 nM, 1 μM, and 50 μM. These concentrations were tested in combination with 2,3-Dimethoxy-5-methyl-p-benzoquinone (Benzo). The concentration of Benzo tested were 25 μM, 50 μM, and 100 μM. Melanoma cells were grown to 80% confluency and seeded in 6 well plates at a concentration of 40K cells per well. The cells were treated with CoQ10, 4-Hydroxybenzoate, Benzo, and a combination of 4-Hydroxybenzoate/Benzo.
A T-test was performed with p<0.05 as statistically significant.

[6] = tested on: HDFa cells; assay: SeaHorse XF analyzer OCR and ECAR; format: cell-based, human
Description: Environmental influencers (e.g., MIMs or Epi-shifters) may also be identified by changes in cellular energetics. One example of the measurement of cellular energetics are the real-time measures of the consumption of molecular oxygen and/or the change in pH of the media of a cell culture. For example, the ability of a potential epi-shifter to modulate the metabolic state of a cell may be analyzed using, for example, the XF24 Analyzer (Seahorse, Inc.). This technology allows for real time detection of oxygen and pH changes in a monolayer of cells in order to evaluate the bioenergetics of a cell microenvironment. The XF24 Analyzer measures and compares the rates of oxygen consumption (OCR), which is a measure of aerobic metabolism, and extracellular acidification (ECAR), which is a measure of glycolysis, both key indicators of cellular energetics.
(SeaHorse Biosciences Inc, North Billerica, Mass.).
In this experiment, the OCR and extracellular acidification rate (ECAR) in normal cells lines were obtained in the presence and absence of CoQ10 to determine baseline values. It was observed that in its native nutrient environment, the basal OCR rates in normal cells lines are different, and are usually a function of the physiological roles of the cells in the body.
For example, one set of experiments were conducted using the non-cancerous cell line HDFa, which is a human adult dermal fibroblast cell line. Fibroblasts are cells that primarily synthesize and secrete extracellular matrix (ECM) components and collagen that form the structural framework (stroma) for tissues. In addition, fibroblasts are known to serve as tissue ambassadors of numerous functions such as wound healing and localized immnomodulation. Under normal physiological conditions, energy requirements in normal fibroblasts are met using a combination of glycolysis and oxidative phosphorylation—the glycolysis providing the necessary nutrients for synthesis of ECM.
FIGS. 29 and 30 describe the OCR in HDFa and HASMC cells grown in physiologically normal glucose (about 4.6 mM) and high glucose (hyperglycemic) conditions.

[7] = 24 hours, concentration not given
[8] = all concentrations and time points tested

For `C=C1/C(=C\C=C2/CCC[C@]3(C)[C@@H]([C@H](C)CCCC(C)(C)O)CC[C@@H]23)C[C@@H](O)C[C@@H]1O` [Vitamin D3, 1α, 25-dihydroxyvitamin D3], the “expression of anti-apoptotic proteins BCL2 and BCL-XL” value ([1]; Deeb et al. 2007) is listed as “repressing the expression”, the “expression of pro-apoptotic proteins (BAX, BAK, BAD)” value ([1]; Deeb et al. 2007) is listed as “inducing the expression” and the “gene transcription of p21WAFI/CIPI” value ([1]; Deeb et al. 2007) is listed as “induce gene transcription”. The “expression of VEGF” value ([1]; Masuda and Jones 2006) was “inhibit the expression” and the “proliferation of tumor-derived endothelial cells” value ([1]; Masuda and Jones 2006) was “inhibit the proliferation”.

With `N[C@H](Cc1ccccc1)C(=O)O` [D-Phenylalanine] the Bcl-2 expression ([2]; 5 μM, 3 hours) was “significant reduction”, the Bcl-2 expression ([2]; 5 μM, 6 hours) was “significant reduction” and the Bcl-2 expression ([2]; 25 μM, 3 hours) was “significant reduction”. For the same molecule, the Bcl-2 expression ([2]; 25 μM, 6 hours) was “significant reduction”, the Bcl-2 expression ([2]; 100 μM, 6 hours) was “significant reduction” and the Caspase-3 expression ([3]; 5 μM, 6 hours) was “significant increase”. For the same molecule, the Caspase-3 expression ([3]; 100 μM, 6 hours) was “significant increase”.

For `N[C@H](Cc1ccc(O)cc1)C(=O)O` [D-Tyrosine], the Bcl-2 expression ([2]; 5 μM, 12 hours) was “reduction”, the Bcl-2 expression ([2]; 5 μM, 24 hours) was “reduction” and the Bcl-2 expression ([2]; 15 μM, 12 hours) was “reduction”. For the same molecule, the Bcl-2 expression ([2]; 15 μM, 24 hours) was “reduction”, the Caspase-3 expression ([3]; 1 μM, 12 hours) was “increase” and the Caspase-3 expression ([3]; 1 μM, 24 hours) was “increase”. For the same molecule, the Caspase-3 expression ([3]; 5 μM, 3 hours) was “significantly increased”, the Caspase-3 expression ([3]; 5 μM, 12 hours) was “significantly increased” and the Caspase-3 expression ([3]; 5 μM, 24 hours) was “significantly increased”.

In the case of `Cc1ncc(CO)c(CO)c1O` [Pyridoxine], the Bcl-2 expression [2, 7] is reported as “significant reduction”.

With `N[C@@H](Cc1ccc(O)cc1)C(=O)O` [L-Tyrosine] the Bcl-2 expression ([2]; 500 μM, 24 hours) was “statistically significant decrease”.

For `O=C(O)c1ccc(O)cc1` [4-Hydroxybenzoate], the “reduction in fibroblast cells” value [4] was “did not show a significant reduction”, the “cell number vs control” value ([5]; 48 hours incubation) was “significant decrease in cell number” and the “cell proliferation vs control” value ([5]; additional molar ratios, HB 500 nM, 1 μM, 50 μM) was “significant decrease in cell proliferation”.

In the case of `NC(Cc1ccc(O)cc1)C(=O)O` (racemic) [DL-Tyrosine], the Bcl-2 expression ([2]; 1 μM, 12 hours) is reported as “statistical decrease”, the Bcl-2 expression ([2]; 5 μM, 24 hours) is reported as “statistical decrease” and the Bcl-2 expression ([2]; 15 μM, 12 hours) is reported as “statistical decrease”. For the same molecule, the Caspase-3 expression ([3]; 5 μM, 12 hours) was “increase” and the Caspase-3 expression ([3]; 15 μM, 12 hours) was “increase”.

For `CC(=O)NCC(=O)O` [Acetylglycine], the Bcl-2 expression ([2]; 5 μM, 12 hours) was “significant decrease”, the Bcl-2 expression ([2]; 25 μM, 12 hours) was “significant decrease” and the Bcl-2 expression ([2]; 100 μM, 24 hours) was “significant decrease”.

With `C[C@@](O)(CCO)CC(=O)O` [Mevalonic Acid] the Bcl-2 expression [2, 8] was “no significant reduction” and the “Caspase-3 expression / apoptotic effect” value [3] was “no significant reduction in Bcl-2 expression or an increase in Caspase-3 expression”.

For `CC(=O)SCCNC(=O)CCNC(=O)[C@H](O)C(C)(C)COP(=O)(O)OP(=O)(O)OC[C@H]1O[C@@H](n2cnc3c(N)ncnc32)[C@H](O)[C@@H]1OP(=O)(O)O` [Acetyl-CoA], the Bcl-2 expression [2, 8] was “no significant observed reduction” and the “Caspase-3 expression / apoptotic effect” value [3] was “no significant observed reduction in Bcl-2 or increase in Caspase-3 expression”.

For `COc1cc(C(O)C(=O)O)ccc1O` (centres unmarked) [3-methoxy-4-hydroxymandelate], the Bcl-2 expression [2, 8] was “downward trend” and the “Caspase-3 expression / apoptotic effect” value [3] was “no statistically significant apoptotic effect”.

For `O=C(O)C(=O)Cc1ccc(O)cc1` [4-Hydroxy-phenylpyruvate], the Bcl-2 expression ([2]; 5 μM, 24 hours) was “significant reduction”, the Bcl-2 expression ([2]; 15 μM, 24 hours) was “significant reduction” and the Caspase-3 expression ([3]; 5 μM, 12 hours) was “significant increase”. For the same molecule, the Caspase-3 expression ([3]; 15 μM, 12 hours) was “significant increase”.

Work on `COC1=C(OC)C(=O)C(C/C=C(\C)CC/C=C(\C)CC/C=C(\C)CC/C=C(\C)CC/C=C(\C)CC/C=C(\C)CC/C=C(\C)CC/C=C(\C)CC/C=C(\C)CCC=C(C)C)=C(C)C1=O` [compound 31510] yielded an ECAR ([6]; Hypoxia (5.5 mM), 50 μM) of 5 mpH/min, an ECAR ([6]; Hypoxia (5.5 mM), 100 μM) of 5 mpH/min and an ECAR ([6]; Hypoxia (22 mM), 50 μM) of 6 mpH/min. The ECAR ([6]; Hypoxia (22 mM), 100 μM) was 8 mpH/min, the ECAR ([6]; Normoxia (5.5 mM), 50 μM) was 6 mpH/min and the ECAR ([6]; Normoxia (5.5 mM), 100 μM) was 6 mpH/min. It also gave an ECAR ([6]; Normoxia (22 mM), 50 μM) of 5 mpH/min and an ECAR ([6]; Normoxia (22 mM), 100 μM) of 5 mpH/min.

In the case of `N[C@@H](Cc1ccccc1)C(=O)O` [L-Phenylalanine], the Bcl-2 expression ([2]; 100 μM, 3 hours) is reported as “statistically significant decrease” and the Bcl-2 expression ([2]; 100 μM, 12 hours) is reported as “statistically significant decrease”.

In the case of `CC(C)(CO)[C@@H](O)C(=O)NCCCO` [Panthenol], the Bcl-2 expression ([2]; 25 μM, time not stated) is reported as “significant reduction”.

With `COc1cc(C(=O)O)ccc1O` [Vanillic acid] the Bcl-2 expression ([2]; 500 nM, 24 hours) was “significantly reduce” and the Bcl-2 expression ([2]; 5 μM, 24 hours) was “significantly reduce”.

In the case of `NC(Cc1ccccc1)C(=O)O` (racemic) [DL-Phenylalanine], the Bcl-2 expression [2, 7] is reported as “statistically significant decrease” and the Caspase-3 expression ([3]; 3 hours, concentration not given) is reported as “statistically significant increase”.
